Data: PMC11237774, “On-target, dual aminopeptidase inhibition provides cross-species antimalarial activity” (mBio, 2024)
Like-named read-outs stand apart in the source and are kept apart here.

Legend:
Dd2 = test: microbe, parasite or virus in culture; type: cell-based, P. falciparum; settings: Plasmodium falciparum, DD2, read-out: EC50 nM (mean)
Description: (§1) In vitro testing was performed using the modified [^3H]hypoxanthine incorporation assay, as previously reported ([34]). The specific mutations in the field isolates (see Table 1, top six strains) have been previously described ([35], [36]), as have the specific mutations in the laboratory-selected Dd2 parasites (see Table 1, remaining five strains) ([36]).

K1 = test: microbe, parasite or virus in culture; type: cell-based, P. falciparum; settings: Plasmodium falciparum, read-out: EC50 nM (mean)
Description: as §1

NF54 = test: microbe, parasite or virus in culture; type: cell-based, P. falciparum; settings: Plasmodium falciparum
Description: as §1

Cam3.1 (MRA1240) = test: microbe, parasite or virus in culture; type: cell-based, P. falciparum; settings: Plasmodium falciparum, read-out: EC50 nM (mean)
Description: as §1

7G8 = test: microbe, parasite or virus in culture; type: cell-based, P. falciparum; settings: Plasmodium falciparum, read-out: EC50 nM (mean)
Description: as §1

TM90C2B = test: microbe, parasite or virus in culture; type: cell-based, P. falciparum; settings: Plasmodium falciparum, read-out: EC50 nM (mean)
Description: as §1

Pb-M17 = Pb-M17 (Plasmodium berghei, UniProt A0A509APA2); test: Recombinant aminopeptidase fluorescence assay (H-Leu-NHMec); type: biochemical; settings: Pb M17, Morrison equation; read-out: Ki^(app) ± SEM
Pb-M17, sequence (A0A509APA2 entry or part of it): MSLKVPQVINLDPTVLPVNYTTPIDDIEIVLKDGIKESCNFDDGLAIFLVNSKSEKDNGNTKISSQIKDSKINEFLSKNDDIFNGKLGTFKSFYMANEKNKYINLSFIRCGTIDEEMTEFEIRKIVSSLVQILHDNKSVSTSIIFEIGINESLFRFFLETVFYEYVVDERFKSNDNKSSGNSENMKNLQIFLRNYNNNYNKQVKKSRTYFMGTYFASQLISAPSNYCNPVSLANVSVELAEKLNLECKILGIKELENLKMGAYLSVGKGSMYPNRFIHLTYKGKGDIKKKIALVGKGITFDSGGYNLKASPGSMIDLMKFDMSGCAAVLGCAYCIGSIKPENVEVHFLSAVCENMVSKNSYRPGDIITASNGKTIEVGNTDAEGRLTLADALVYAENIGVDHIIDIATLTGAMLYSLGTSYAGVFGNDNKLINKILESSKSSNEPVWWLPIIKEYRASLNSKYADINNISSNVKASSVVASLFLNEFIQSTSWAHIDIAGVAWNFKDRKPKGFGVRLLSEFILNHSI
Description: Inhibition of aminopeptidase activity assays were performed against nine aminopeptidases: the M1 alanyl and M17 leucyl aminopeptidases from P. falciparum (PfA-M1; PfA-M17), P. vivax (Pv-M1; Pv-M17), and P. berghei (Pb-M1; Pb-M17), and three human M1 homologs: LTA4H (OriGene TP307617), ERAP1 (OriGene TP314469), and ERAP2 (Creative BioMart ERAP2-304H). The Plasmodium enzymes were produced recombinantly as described previously ([16], [17]), and the human recombinant enzymes were purchased from commercial suppliers as indicated.
The concentration of H-Leu-NHMec in the assay was held constant for each enzyme and ranged from 10 to 100 µM, depending on the enzyme. Reactions were measured at 37°C in white 384-well plates in a total volume of 25 or 50 µL using a spectrofluorimeter (BMG FLUOstar) with excitation at 355 nm and emission at 460 nm. The fluorescence signal was continuously monitored until a final steady-state velocity, v, was obtained. Inhibition constants were calculated from biological triplicates made from three different protein preparations.
Substrate concentrations were selected to allow sensitive detection of enzyme activity while not exceeding the Km for each enzyme. A compound concentration range was selected to obtain a complete inhibition curve (0%–100 %) in biological triplicate. Where possible, the Ki values were calculated by plotting the initial rates versus inhibitor concentration and fitting to the Morrison equation for tight-binding inhibitors in GraphPad Prism (V.8.4.1; non-linear regression method).

[1] = Plasma protein binding by ultracentrifugation; type: in vitro ADME; settings: plasma (10% plasma diluted with PBS), pH 7.4
Description: Human plasma was obtained from the Volunteer Blood Donor Registry (Walter & Eliza Hall Institute, Melbourne, Australia), rat plasma was from male Sprague-Dawley rats (Animal Resource Centre, Perth, Western Australia) and mouse plasma was procured as described above. RPMI-1640 media supplemented with 25 mM HEPES, 2 g/L sodium bicarbonate, and 100 mg/L neomycin were additionally supplemented with 5 […] on the day prior to binding assessment. […] Additional aliquots of spiked matrix were maintained at 37°C for 4.2 h but not centrifuged to serve as controls for stability assessment and to obtain a measure of the total concentration in each matrix. Following centrifugation, aliquots of the protein-free supernatant and the non-centrifuged matrix controls were “matrix matched” by addition of an equal volume of the opposite medium (i.e., either blank buffer or blank matrix) and assayed as described above with comparison to calibration standards prepared in 50% matrix/50% PBS.

[2] = target: human aminopeptidase N (APN or CD13); parameters: method as in PMID 30537832; settings: cited from earlier work
[3] = tested on: human M1 aminopeptidase insulin-regulated aminopeptidase (IRAP); parameters: method as in PMID 30537832; settings: tested up to 200 µM; cited from earlier work
HDAC2 = target: T1, HDAC2 (Homo sapiens, UniProt Q92769); test: Eurofins Cerep safety pharmacology screening; type: biochemical; settings: read-out: Mean % inhibition (n=2); HDAC2, 10 µM
T1 construct: Eurofins Cerep (contract screen)
T1 sequence (Q92769 whole entry): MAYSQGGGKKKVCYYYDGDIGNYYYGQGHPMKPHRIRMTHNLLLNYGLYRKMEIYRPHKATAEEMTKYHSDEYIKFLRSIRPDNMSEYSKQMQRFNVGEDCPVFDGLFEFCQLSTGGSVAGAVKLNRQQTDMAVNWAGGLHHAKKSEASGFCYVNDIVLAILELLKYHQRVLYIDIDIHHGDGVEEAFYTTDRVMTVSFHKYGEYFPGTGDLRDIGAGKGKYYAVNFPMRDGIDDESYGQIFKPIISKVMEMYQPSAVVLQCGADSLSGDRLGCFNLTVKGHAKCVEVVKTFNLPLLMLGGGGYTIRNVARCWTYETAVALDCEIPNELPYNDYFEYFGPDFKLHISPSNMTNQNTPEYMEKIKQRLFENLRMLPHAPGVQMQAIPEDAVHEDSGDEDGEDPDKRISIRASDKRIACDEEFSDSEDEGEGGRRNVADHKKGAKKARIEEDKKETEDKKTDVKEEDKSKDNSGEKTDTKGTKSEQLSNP
From the text: (§2) Results showing any inhibition or stimulation higher than 50% are considered to represent significant effects of the test compounds.

HDAC8 = target: T2, HDAC8 (Homo sapiens, UniProt Q9BY41); test: Eurofins Cerep safety pharmacology screening; type: biochemical; settings: read-out: Mean % inhibition (n=2); HDAC8, 10 µM
T2 construct: Eurofins Cerep (contract screen)
T2 sequence (Q9BY41 whole entry): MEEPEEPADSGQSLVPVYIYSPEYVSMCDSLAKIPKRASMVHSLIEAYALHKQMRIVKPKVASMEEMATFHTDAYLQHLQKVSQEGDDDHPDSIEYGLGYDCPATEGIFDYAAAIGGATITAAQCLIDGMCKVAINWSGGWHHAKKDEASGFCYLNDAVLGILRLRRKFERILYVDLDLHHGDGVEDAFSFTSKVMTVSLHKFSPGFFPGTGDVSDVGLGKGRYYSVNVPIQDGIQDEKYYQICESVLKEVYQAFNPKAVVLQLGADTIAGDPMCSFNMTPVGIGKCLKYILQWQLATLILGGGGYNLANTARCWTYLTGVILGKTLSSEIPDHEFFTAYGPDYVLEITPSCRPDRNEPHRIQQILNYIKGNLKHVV
From the text: as §2

HDAC9 = target: T3, HDAC9 (Homo sapiens, UniProt Q9UKV0); test: Eurofins Cerep safety pharmacology screening; type: biochemical; settings: read-out: Mean % inhibition (n=2); HDAC9, 10 µM
T3 construct: Eurofins Cerep (contract screen)
T3 sequence (Q9UKV0 whole entry): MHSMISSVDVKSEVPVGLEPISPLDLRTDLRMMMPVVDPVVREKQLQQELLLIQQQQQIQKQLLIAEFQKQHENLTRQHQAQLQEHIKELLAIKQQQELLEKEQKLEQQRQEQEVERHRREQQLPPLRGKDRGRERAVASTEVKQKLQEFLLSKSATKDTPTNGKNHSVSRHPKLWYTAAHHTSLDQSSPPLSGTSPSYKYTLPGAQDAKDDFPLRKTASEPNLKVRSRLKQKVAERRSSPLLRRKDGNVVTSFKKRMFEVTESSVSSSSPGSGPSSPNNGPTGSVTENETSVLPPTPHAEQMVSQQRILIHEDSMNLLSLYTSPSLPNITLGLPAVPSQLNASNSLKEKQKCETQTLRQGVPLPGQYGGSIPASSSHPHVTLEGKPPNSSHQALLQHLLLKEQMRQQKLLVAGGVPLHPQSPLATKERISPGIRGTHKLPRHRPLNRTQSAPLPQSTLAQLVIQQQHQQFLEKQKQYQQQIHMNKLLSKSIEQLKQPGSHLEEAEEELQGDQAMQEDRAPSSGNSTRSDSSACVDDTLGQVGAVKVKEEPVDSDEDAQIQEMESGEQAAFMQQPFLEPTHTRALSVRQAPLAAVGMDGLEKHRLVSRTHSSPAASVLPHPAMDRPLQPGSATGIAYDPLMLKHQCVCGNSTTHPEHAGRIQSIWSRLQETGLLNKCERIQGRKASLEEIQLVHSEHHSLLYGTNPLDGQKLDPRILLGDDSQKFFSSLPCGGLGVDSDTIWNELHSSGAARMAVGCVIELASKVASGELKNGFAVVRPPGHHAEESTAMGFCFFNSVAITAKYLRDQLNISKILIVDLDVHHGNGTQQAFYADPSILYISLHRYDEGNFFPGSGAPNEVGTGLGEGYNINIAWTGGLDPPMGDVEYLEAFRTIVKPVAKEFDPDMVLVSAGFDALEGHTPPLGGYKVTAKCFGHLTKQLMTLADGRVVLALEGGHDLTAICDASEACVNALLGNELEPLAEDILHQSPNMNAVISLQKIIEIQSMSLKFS
From the text: as §2

MMP-14 = target: T4, MMP-14 (Homo sapiens, UniProt P50281); test: Eurofins Cerep safety pharmacology screening; type: biochemical; settings: read-out: Mean % inhibition (n=2); MMP-14, 10 µM
T4 construct: Eurofins Cerep (contract screen)
From the text: as §2

Pf3D7 = test: Parasite killing rate (wash-out) assay; type: cell-based, P. falciparum; settings: washout after 24 or 48 h of treatment, 10× EC50, parasites traversed a trophozoite stage
Description: Assays were performed as previously described ([7]). […] Parasite cultures incubated for 48 h were fed at 24 h with fresh media containing compound. […] Once thawed, cultures were analyzed using SYBR Green I as described above. Parasite viability was determined as a percentage of vehicle-treated controls, and experiments were performed in four biological replicates.

[4] = In vivo exposure after single oral dosing; settings: male, Swiss outbred, mouse, plasma, 50 mg/kg
Description: This produced a uniform off-white milky suspension of pH 6.0. […] Samples were collected by either submandibular bleed (~120 µL) or terminal cardiac puncture (under inhaled isoflurane anesthesia). Blood samples were centrifuged immediately, and supernatant plasma was removed and stored at −80°C until analysis as described above.

[5] = tested on: P. falciparum Dd2 parasites; test: Fractional inhibitory concentration, artemisinin and MMV1557817 interaction; type: cell-based
Description: Fractional inhibitory concentrations (FIC) were determined as previously described ([44]). […] The FIC for each drug was determined by EC50 of drug in a mixture/EC50 of drug alone, and the sum of FIC was determined by the addition of the two individual FIC values. Synergistic FIC is described as <1, additive = 1 < 2, and antagonism > 2 ([44]).

SMILES: CC(C)(C)CC(=O)NC(C(=O)NO)c1ccc(-c2cc(F)c(F)c(F)c2)cc1 (stereo not drawn) [MMV1557817, N-(2-(hydroxyamino)−2-oxo-1-(3′,4′,5′-trifluoro-[1,1′-biphenyl]-4-yl)ethyl)-3,3-dimethylbutanamide]
- EC50 (Dd2): 23 nM
- EC50 (K1): 26 nM
- EC50 (NF54; NF54, read-out: unbound EC50): 3.4 nM
- EC50 (NF54; NF54, sensitive strain, read-out: EC50 nM (mean)): 22 nM
- EC50 (Cam3.1 (MRA1240)): 23 nM
- EC50 (7G8): 28 nM
- EC50 (TM90C2B): 21 nM
- Ki (Pb-M17): 130 ± 7 nM
- fraction unbound at 4.2 h ([1]; male, Sprague-Dawley, rat plasma): 0.022
- fraction unbound at 4.2 h ([1]; mouse plasma): 0.023
- Ki [2]: 300 nM
- off-target inhibition [3]: limited off-target inhibitory affects
- inhibition at 10 µM (HDAC2): 3%
- inhibition at 10 µM (HDAC8): 6.3%
- inhibition at 10 µM (HDAC9): -3.6%
- inhibition at 10 µM (MMP-14): 24.1%
- parasite survival (Pf3D7): less than 10%
- AUC(0-inf) [4]: 15.2 µM·h
- AUC(0-t) [4]: 14.9 µM·h
- Cmax [4]: 5.2 µM
- Tmax [4]: 0.5 h
- half-life [4]: 4.3 h
- MMV1557817 mean FIC ± SEM ([5]; ratio MMV1557817:artemisinin 1:4): 0.87 ± 0.08
- MMV1557817 mean FIC ± SEM ([5]; ratio MMV1557817:artemisinin 2:3): 1.13 ± 0.19
- MMV1557817 mean FIC ± SEM ([5]; ratio MMV1557817:artemisinin 3:2): 1.10 ± 0.20
- MMV1557817 mean FIC ± SEM ([5]; ratio MMV1557817:artemisinin 4:1): 1.05 ± 0.18
- MMV1557817 mean FIC ± SEM ([5]; ratio MMV1557817:artemisinin 5:0): 1.00 ± 0.19
